Test results from PubChem BioAssay (NCI).
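Tested at 5 concentrations; 48 h exposure; 96-well plates; endpoints linearly interpolated, else capped at highest concentration. GI50 = concentration required for 50% inhibition of growth. At the TGI there is no net growth.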

Columns and labels:
Test in all cases: NCI-60 cell line screen, 48 h
KM12 colon = tested on: KM12 colon
SF-295 CNS = tested on: SF-295 CNS
SF-268 CNS = tested on: SF-268 CNS
SNB-19 CNS = tested on: SNB-19 CNS
UACC-257 melanoma = tested on: UACC-257 melanoma
786-0 renal = tested on: 786-0 renal
NCI-H460 lung = tested on: NCI-H460 lung
A549 NSCLC = tested on: A549 NSCLC
MOLT-4 leukemia = tested on: MOLT-4 leukemia
BT-549 breast = tested on: BT-549 breast

Row | SMILES | TGI (KM12 colon) | TGI (SF-295 CNS) | TGI (SF-268 CNS) | TGI (SNB-19 CNS) | TGI (UACC-257 melanoma) | TGI (786-0 renal) | TGI (NCI-H460 lung) | TGI (A549 NSCLC) | TGI (MOLT-4 leukemia) | GI50 (KM12 colon) | GI50 (SF-295 CNS) | GI50 (SNB-19 CNS) | GI50 (BT-549 breast) | TGI (BT-549 breast) | GI50 (UACC-257 melanoma) | GI50 (786-0 renal) | GI50 (NCI-H460 lung) | GI50 (A549 NSCLC) | GI50 (MOLT-4 leukemia) | GI50 (SF-268 CNS)
1 | COc1ccc2nc(NC(=O)C(=O)CC(=O)c3ccc(Cl)cc3)sc2c1 | > 100 µM | > 100 µM | > 100 µM | > 100 µM | > 100 µM | > 100 µM | > 100 µM | > 100 µM | > 100 µM |  |  |  |  |  |  |  |  |  |  | 
2 | Cc1ccc(S(=O)(=O)OCC23CCC(C4CC42)C2CC23)cc1 (stereo not drawn) |  | > 100 µM | > 100 µM | > 100 µM | 89.1 µM | > 100 µM | > 100 µM | > 100 µM | > 100 µM |  |  |  |  |  |  |  |  |  |  | 
3 | CNS(=O)(=O)NN(C)S(=O)(=O)c1ccc(Br)cc1 | > 100 µM | > 100 µM |  | > 100 µM | > 100 µM | > 100 µM |  | > 100 µM | > 100 µM |  |  |  |  |  |  |  |  |  |  | 
4 | c1ccc2[nH]c(-c3ccc(OCCCCCOc4ccc(-c5nc6ccccc6[nH]5)cc4)cc3)nc2c1 | 4.17 µM | 13.1 µM |  | > 28.4 µM | 3.83 µM | 5.92 µM | > 100 µM | > 47.4 µM | 3.48 µM | 1.54 µM | 5.61 µM | 5.97 µM | 2.33 µM | 5.58 µM | 1.65 µM | 2.28 µM | 1.6 µM | 2.53 µM | 1.07 µM | 
5 | CC(=O)OC[C@@H]1[C@H]2CC(=O)O[C@H]2C[C@H]1OC(C)=O | > 100 µM | > 100 µM | > 100 µM | > 100 µM | > 100 µM | > 100 µM | > 100 µM | > 100 µM | > 100 µM |  |  |  |  |  |  |  |  |  |  | 
6 | CCCN(CCC)C(=O)Cc1c2n(c3ccccc13)Cc1ccccc1-2 | > 100 µM | > 100 µM | > 100 µM | > 100 µM | > 100 µM | > 100 µM | > 100 µM | > 100 µM | > 100 µM |  |  |  |  |  |  |  |  |  |  | 
7 | CC(=S)NNC(=O)c1ccncc1 | > 100 µM | > 100 µM | > 100 µM | > 100 µM | > 100 µM | > 100 µM | > 100 µM | > 100 µM | > 100 µM |  |  |  |  |  |  |  |  |  |  | 
8 | COc1ccc(C=NC23CC4CC(CC(C4)C2)C3)cc1 | > 100 µM | > 100 µM | > 100 µM | > 100 µM | > 100 µM | > 100 µM | > 100 µM | > 100 µM | > 100 µM |  |  |  |  |  |  |  |  |  |  | 
9 | NC1CCC[C@@H](O)[C@H]1O (stereo partly drawn) | > 100 µM | > 100 µM | > 100 µM | > 100 µM | > 100 µM | > 100 µM | > 100 µM | > 100 µM |  |  |  |  |  | > 100 µM |  |  |  |  |  | 
10 | O=C(N/N=C/c1ccc(O)cc1O)c1ccc(Nc2ccnc(C(F)(F)F)c2)cc1 | > 100 µM | 23.3 µM | 33.3 µM | > 56.5 µM | > 100 µM | > 100 µM | > 100 µM | > 100 µM |  | > 100 µM |  | 14 µM | 22.2 µM | 79.9 µM | > 100 µM | 31.2 µM | > 100 µM | > 100 µM |  | 0.156 µM
11 | O=C(c1cc(-c2cc3c(cc2C(=O)N2Cc4ccccc4C[C@H]2CN2CCOCC2)OCO3)n2c1CCCC2)N(c1ccccc1)c1ccc(O)cc1 | > 100 µM | > 100 µM | > 100 µM | > 100 µM | > 100 µM | > 100 µM | > 100 µM | > 100 µM |  | 12.9 µM | 5.14 µM | 7.13 µM | 36.4 µM | > 100 µM | 18.9 µM | 45.9 µM | 7.09 µM | 5.15 µM |  | 7.65 µM
12 | O=[N+]([O-])c1cc(Br)cc2c1[nH]c1ccc(Br)cc12 | > 100 µM | 9.35 µM | 45.9 µM | 70.8 µM | > 100 µM | 27.4 µM | 66.6 µM | 45 µM |  | 13.3 µM | 2.78 µM | 16.1 µM | 18.7 µM | 58 µM | 86 µM | 5.47 µM | 4.66 µM | 6.11 µM |  | 10.2 µM
13 | Cc1cc(N/N=C/c2nc(-c3ccccc3)oc2C)c2cc(Cl)ccc2n1 |  | 3.2 µM |  | 4.86 µM | 4.9 µM | 3.38 µM | 3.61 µM | 3.58 µM | 4.54 µM |  | 1.69 µM | 2.12 µM | 14.9 µM | 29.3 µM | 2.01 µM | 1.64 µM | 1.88 µM | 1.85 µM | 2.04 µM | 
14 | O=C(O)c1ccc([N+](=O)[O-])c2c(=O)c3ccccc3[nH]c12 | > 100 µM | > 100 µM | > 100 µM | > 100 µM | > 100 µM | > 100 µM | > 100 µM | > 100 µM | > 100 µM |  |  |  |  |  |  |  |  |  |  | 
15 | COc1ccc(/C=C2\CNC/C(=C\c3ccc(OC)cc3)C2=O)cc1 | > 100 µM | > 100 µM | 79.2 µM | > 100 µM | > 100 µM | > 100 µM | > 100 µM | > 100 µM | > 100 µM |  |  |  |  |  |  |  |  |  |  | 
16 | Cc1ccc2c(=O)[nH]sc2c1 |  | > 100 µM | 39 µM | > 100 µM | 44.1 µM | 15.4 µM | > 100 µM | 43.1 µM | 23.8 µM |  |  |  |  | 30 µM |  |  |  |  |  | 
17 | O=C1C(Cl)=C(N2CCOCC2)C(=O)c2ccccc21 | 27.6 µM | 36.7 µM | 16.8 µM | 30.1 µM | 3.03 µM | 31.2 µM | 42.8 µM | 32.3 µM |  | 13.7 µM | 19.2 µM | 16.1 µM | 10.8 µM | 23.2 µM | 1.62 µM | 16.6 µM | 20.2 µM | 17.8 µM |  | 4.88 µM
18 | O=C1NC2(O)c3ccccc3C(=O)C2(O)N1c1ccccc1 (stereo not drawn) | > 100 µM | > 100 µM | > 100 µM | > 100 µM | > 100 µM | > 100 µM | > 100 µM | > 100 µM | > 100 µM |  |  |  |  |  |  |  |  |  |  | 
19 | C=CCN=C1N=C(CC(=O)OCC)CS1 | > 100 µM | > 100 µM | > 100 µM | > 100 µM | > 100 µM | > 100 µM | > 100 µM | > 100 µM |  |  |  |  |  |  |  |  |  |  |  | 
